From PMC4979877 (2016)

Test system: non-cognate duplex (DNA, duplex) GGGTGAGGAGGAGGGAGATCGGTC/TGACCGATCTCCCTCCTCCTCACCC
Assay: fluorescence titration
Details: 0.025 M Tris-HCl, pH 7.5, room temperature; probe 12 µM; fluorescence only 1.5-fold up

binding: weak
SMILES: CN(C)CCCNC(=O)CCNC(=O)c1cc(NC(=O)c2cc(NC(=O)c3cc(NC(=O)c4cc(NC(=O)C(N)CCNC(=O)c5cc(NC(=O)c6cc(NC(=O)c7cc(NC(=O)c8nc(NC(=O)CCCNC(=O)CCc9cn(-c%10cc%11ccc(O)cc%11oc%10=O)nn9)cn8C)cn7C)cn6C)cn5C)cn4C)cn3C)cn2C)cn1C (stereo not shown)
